{
  "source": "paper PMC3032312",
  "about": "(Cell Death & Disease, 2010)",
  "key": {"[1]": {"tested_on": "36 selected tumor cell lines", "experiment": "ATP-Lite cell viability assay", "type": "cell-based, human", "conditions": "72 h"}, "Bcl-B": {"biological_target": "T1, Bcl-B (Homo sapiens, UniProt Q9HD36)", "T1 sequence (Q9HD36 1-204)": "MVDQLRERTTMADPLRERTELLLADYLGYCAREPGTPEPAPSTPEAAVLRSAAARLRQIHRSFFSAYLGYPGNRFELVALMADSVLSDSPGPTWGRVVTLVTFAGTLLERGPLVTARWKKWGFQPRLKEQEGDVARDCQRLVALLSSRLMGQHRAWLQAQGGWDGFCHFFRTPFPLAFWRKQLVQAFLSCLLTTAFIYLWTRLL", "conditions": "displacement of fluorochrome-conjugated BH3 Bid peptide; ABT-737; cited from earlier work"}, "Mcl-1": {"tested_on": "Mcl-1", "conditions": "displacement of fluorochrome-conjugated BH3 Bid peptide; cited from earlier work"}, "Bfl-1": {"tested_on": "Bfl-1", "conditions": "displacement of fluorochrome-conjugated BH3 Bid peptide; cited from earlier work"}},
  "data": [
    {"smiles": "CN(C)CC[C@H](CSc1ccccc1)Nc1ccc(S(=O)(=O)NC(=O)c2ccc(N3CCN(Cc4ccccc4-c4ccc(Cl)cc4)CC3)cc2)cc1[N+](=O)[O-]", "note": "[ABT-737]", "values": [
      {"measurement": "cell killing effect in six of the studied cell lines", "setting": "[1]; concentration range tested 0.1-30 μM", "result": "no effect"},
      {"measurement": "cytotoxic activity against leukemia/lymphoma lines", "setting": "[1]; leukemia/lymphoma lines, ATP-Lite", "result": "potent cytotoxic activity"},
      {"measurement": "IC50 values, Bcl-B", "setting": "Bcl-B", "result": "not active"},
      {"measurement": "IC50 values, Mcl-1", "setting": "Mcl-1", "result": "not active"},
      {"measurement": "IC50 values, Bfl-1", "setting": "Bfl-1", "result": "not active"}
    ]}
  ]
}
